Laboratory results reported in ChEMBL document CHEMBL1641542, “Structure-activity relationships of 2,4-diphenyl-1H-imidazole analogs as CB2 receptor agonists for the treatment of chronic pain” (Bioorg Med Chem Lett, 2011).

How the values were obtained:
Cannabinoid receptor 1 [1] = molecular target: T1, Cannabinoid receptor 1 (Homo sapiens, UniProt P21554); experiment: Agonist activity at human cloned CB1 receptor expressed in CHO cells assessed as inhibition of forskolin-induced cAMP accumulation; type: functional, cell-based
Cannabinoid receptor 2 [2] = molecular target: T2, Cannabinoid receptor 2 (Homo sapiens, UniProt P34972); experiment: Agonist activity at human cloned CB2 receptor expressed in CHO cells assessed as inhibition of forskolin-induced cAMP accumulation; type: functional, cell-based
Cannabinoid receptor 2 [3] = molecular target: T2, Cannabinoid receptor 2; experiment: Agonist activity at human cloned CB2 receptor expressed in CHO cells assessed as inhibition of forskolin-induced cAMP accumulation relative to control; type: functional, cell-based
[4] = AUC (0 to 6 hrs) in rat at 10 mg/kg, po; type: ADME, organism-based; parameters: time < 6 hr, dose 10 mg/kg, route oral; details: plasma
Cannabinoid receptor 1 [5] = molecular target: T1, Cannabinoid receptor 1; experiment: Agonist activity at human cloned CB1 receptor expressed in CHO cells assessed as inhibition of forskolin-induced cAMP accumulation relative to control; type: functional, cell-based
Cannabinoid receptor 1 [6] = molecular target: T1, Cannabinoid receptor 1; experiment: Displacement of [3H]-CP55940 from human cloned CB1 receptor expressed in CHO cells; type: cell-based
Cannabinoid receptor 2 [7] = molecular target: T2, Cannabinoid receptor 2; experiment: Displacement of [3H]-CP55940 from human cloned CB2 receptor expressed in CHO cells; type: cell-based

T1 sequence (P21554 whole entry): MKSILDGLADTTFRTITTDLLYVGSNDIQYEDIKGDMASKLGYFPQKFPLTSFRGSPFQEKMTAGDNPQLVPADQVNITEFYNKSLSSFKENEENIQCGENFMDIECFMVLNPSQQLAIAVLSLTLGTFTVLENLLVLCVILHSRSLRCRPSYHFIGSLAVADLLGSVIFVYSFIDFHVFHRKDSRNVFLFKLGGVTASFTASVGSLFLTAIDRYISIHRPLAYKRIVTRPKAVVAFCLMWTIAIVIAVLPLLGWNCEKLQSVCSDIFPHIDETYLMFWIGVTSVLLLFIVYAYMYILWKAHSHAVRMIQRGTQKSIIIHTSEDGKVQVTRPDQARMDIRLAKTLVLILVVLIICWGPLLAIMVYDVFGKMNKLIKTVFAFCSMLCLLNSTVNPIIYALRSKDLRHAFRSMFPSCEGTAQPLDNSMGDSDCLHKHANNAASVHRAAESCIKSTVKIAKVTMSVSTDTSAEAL
T2 sequence (P34972 whole entry): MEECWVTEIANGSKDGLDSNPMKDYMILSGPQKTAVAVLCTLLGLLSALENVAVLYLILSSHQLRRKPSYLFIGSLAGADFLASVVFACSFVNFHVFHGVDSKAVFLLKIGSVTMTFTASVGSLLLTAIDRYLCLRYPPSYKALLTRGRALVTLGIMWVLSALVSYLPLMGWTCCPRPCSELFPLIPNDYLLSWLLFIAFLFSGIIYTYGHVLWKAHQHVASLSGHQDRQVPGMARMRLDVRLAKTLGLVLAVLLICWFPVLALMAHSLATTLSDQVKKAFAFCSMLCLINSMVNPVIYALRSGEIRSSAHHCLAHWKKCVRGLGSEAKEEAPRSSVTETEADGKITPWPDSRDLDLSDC

EC50 (Cannabinoid receptor 2 [2]) [nM] | Emax (Cannabinoid receptor 2 [3]) [%] | Structure (SMILES) | EC50 (Cannabinoid receptor 1 [1]) [nM] | AUC(0-t) at 6 h [4] [µM·h] | Emax (Cannabinoid receptor 1 [5]) [%] | Ki (Cannabinoid receptor 1 [6]) [nM] | Ki (Cannabinoid receptor 2 [7]) [nM]
113 | 92 | O[C@H]1CCCN(Cc2cccc(-c3nc(-c4cccc(C(F)(F)F)c4)c[nH]3)c2)C1 | > 10000 |  |  |  | 
61 | 91 | OCC1CCCN(Cc2cccc(-c3nc(-c4cccc(C(F)(F)F)c4)c[nH]3)c2)C1 (centres undefined) | > 1000 |  |  |  | 
70 | 87 | CC1CCCN(Cc2cccc(-c3nc(-c4cccc(C(F)(F)F)c4)c[nH]3)c2)C1 (centres undefined) |  | 1.41 |  |  | 
9 | 102 | CC(=O)n1cc(-c2cccc(C(F)(F)F)c2)nc1-c1cccc(CN2CCOCC2)c1 | > 1000 |  |  |  | 
169 | 78 | C[C@H]1COCCN1Cc1cccc(-c2nc(-c3cccc(C(F)(F)F)c3)c[nH]2)c1 |  |  |  |  | 
8 | 107 | FC1CCN(Cc2cccc(-c3nc(-c4cccc(Cl)c4)c[nH]3)c2)CC1 | 130 |  |  |  | 
130 | 108 | FC1CCN(Cc2ccccc2-c2nc(-c3cccc(C(F)(F)F)c3)c[nH]2)CC1 | > 10000 |  |  |  | 
16 | 98 | FC1CCCN(Cc2cccc(-c3nc(-c4cccc(C(F)(F)F)c4)c[nH]3)c2)C1 (centres undefined) |  | 0.682 |  |  | 
25 | 98 | FC1(F)CCCN(Cc2cccc(-c3nc(-c4cccc(C(F)(F)F)c4)c[nH]3)c2)C1 |  | 0.851 |  |  | 
87 | 102 | CCOc1ccc(F)c(-c2c[nH]c(-c3cccc(CN4CCCCC4)c3)n2)c1 | 8500 |  |  |  | 
218 |  | CC(C)n1cc(-c2cccc(C(F)(F)F)c2)nc1-c1cccc(CN2CCOCC2)c1 | > 1000 |  |  |  | 
5 | 107 | COc1ccc(F)c(-c2c[nH]c(-c3cccc(CN4CCC(F)(F)CC4)c3)n2)c1 | 25 |  |  |  | 
24 | 104 | Clc1ccc(-c2c[nH]c(-c3cccc(CN4CCCCC4)c3)n2)c(Cl)c1 | 1800 |  |  |  | 
510 | 102 | CC1CN(Cc2ccccc2-c2nc(-c3cccc(C(F)(F)F)c3)c[nH]2)CCO1 (centres undefined) | > 10000 |  |  |  | 
11 | 101 | O=C(c1ccccc1)n1cc(-c2cccc(C(F)(F)F)c2)nc1-c1cccc(CN2CCOCC2)c1 |  |  |  |  | 
9 | 107 | FC1CCN(Cc2cccc(-c3nc(-c4cccc(C(F)(F)F)c4)c[nH]3)c2)CC1 | 2290 | 0.524 |  |  | 
6 | 100 | FC(F)(F)c1cccc(-c2c[nH]c(-c3cccc(CN4CCSCC4)c3)n2)c1 | > 1000 | 0.042 |  |  | 
14 | 102 | CC1CN(Cc2cccc(-c3nc(-c4cccc(Cl)c4)c[nH]3)c2)CCO1 (centres undefined) | 3250 |  |  |  | 
5 | 119 | FC1CCN(Cc2cccc(-c3nc(-c4cccc(Cl)c4Cl)c[nH]3)c2)CC1 | 1290 |  |  |  | 
5 | 106 | COc1ccc(F)c(-c2c[nH]c(-c3cccc(CN4CCC(F)CC4)c3)n2)c1 | 87 |  |  |  | 

Structure (SMILES) | EC50 (Cannabinoid receptor 2 [2]) [nM] | Emax (Cannabinoid receptor 2 [3]) [%] | EC50 (Cannabinoid receptor 1 [1]) [nM] | AUC(0-t) at 6 h [4] [µM·h] | Emax (Cannabinoid receptor 1 [5]) [%] | Ki (Cannabinoid receptor 1 [6]) [nM] | Ki (Cannabinoid receptor 2 [7]) [nM]
O=S(=O)(c1ccccc1)n1cc(-c2cccc(C(F)(F)F)c2)nc1-c1cccc(CN2CCOCC2)c1 | > 1000 |  |  |  |  |  | 
FC(F)(F)c1cccc(-c2cn(Cc3ccccc3)c(-c3cccc(CN4CCOCC4)c3)n2)c1 | > 1000 |  | > 1000 |  |  |  | 
FC(F)(F)c1cccc(-c2c[nH]c(-c3cccc(CN4CCCCC4)c3)n2)c1 | 14 | 104 | > 10000 | 0.537 |  |  | 
FC1CCN(Cc2cccc(-c3nc(-c4ccc(Cl)cc4Cl)c[nH]3)c2)CC1 | 10 | 107 | 2450 |  |  |  | 
FC1(F)CCN(Cc2cccc(-c3nc(-c4cccc(C(F)(F)F)c4)c[nH]3)c2)CC1 | 5 | 100 | 2550 | 1.11 |  |  | 
Clc1cccc(-c2c[nH]c(-c3cccc(CN4CCCCC4)c3)n2)c1 | 10 | 114 | 1050 |  |  |  | 
CC1CN(Cc2cccc(-c3nc(-c4cccc(C(F)(F)F)c4)c[nH]3)c2)CCO1 (centres undefined) | 25 | 97 | > 10000 | 1.99 |  |  | 
FC(F)(F)c1cccc(-c2cn(CC3CC3)c(-c3cccc(CN4CCOCC4)c3)n2)c1 | 412 | 68 | > 1000 |  |  |  | 
FC(F)(F)c1cccc(-c2cn(-c3ccccc3)c(-c3cccc(CN4CCOCC4)c3)n2)c1 | > 1000 |  |  |  |  |  | 
Brc1cccc(-c2c[nH]c(-c3cccc(CN4CCOCC4)c3)n2)c1 | 5 | 112 | 665 | 0.158 |  |  | 
COc1ccc(F)c(-c2c[nH]c(-c3cccc(CN4CCOCC4)c3)n2)c1 | 4 | 109 | 140 |  |  |  | 
Clc1cccc(-c2c[nH]c(-c3cccc(CN4CCCCC4)c3)n2)c1Cl | 8 | 115 | 12600 |  |  |  | 
COc1ccc(-c2c[nH]c(-c3cccc(CN4CCC(F)(F)CC4)c3)n2)c(F)c1 | 3 | 107 | 39 |  |  |  | 
FC(F)(F)c1cccc(-c2c[nH]c(-c3cccc(CN4CCOCC4)c3)n2)c1 | 8 | 80 | > 1000 | 0.866 | 67 | 1000 | 42
CC1CCN(Cc2cccc(-c3nc(-c4cccc(C(F)(F)F)c4)c[nH]3)c2)CC1 | 21 | 97 | > 10000 | 0.881 |  |  | 
CC1CCN(Cc2cccc(-c3nc(-c4cccc(Cl)c4Cl)c[nH]3)c2)CC1 | 25 | 107 | > 10000 |  |  |  | 
COc1ccc(F)c(-c2c[nH]c(-c3cccc(CN4CCCCC4)c3)n2)c1 | 4 | 108 | 320 |  |  |  | 
